According to ChEMBL document CHEMBL2375291, “Discovery of a series of novel 5H-pyrrolo[2,3-b]pyrazine-2-phenyl ethers, as potent JAK3 kinase inhibitors” (Bioorg Med Chem Lett, 2013):

Each molecule was assayed against T1, Tyrosine-protein kinase JAK3 (Homo sapiens, UniProt P52333).
T1 sequence (P52333 whole entry): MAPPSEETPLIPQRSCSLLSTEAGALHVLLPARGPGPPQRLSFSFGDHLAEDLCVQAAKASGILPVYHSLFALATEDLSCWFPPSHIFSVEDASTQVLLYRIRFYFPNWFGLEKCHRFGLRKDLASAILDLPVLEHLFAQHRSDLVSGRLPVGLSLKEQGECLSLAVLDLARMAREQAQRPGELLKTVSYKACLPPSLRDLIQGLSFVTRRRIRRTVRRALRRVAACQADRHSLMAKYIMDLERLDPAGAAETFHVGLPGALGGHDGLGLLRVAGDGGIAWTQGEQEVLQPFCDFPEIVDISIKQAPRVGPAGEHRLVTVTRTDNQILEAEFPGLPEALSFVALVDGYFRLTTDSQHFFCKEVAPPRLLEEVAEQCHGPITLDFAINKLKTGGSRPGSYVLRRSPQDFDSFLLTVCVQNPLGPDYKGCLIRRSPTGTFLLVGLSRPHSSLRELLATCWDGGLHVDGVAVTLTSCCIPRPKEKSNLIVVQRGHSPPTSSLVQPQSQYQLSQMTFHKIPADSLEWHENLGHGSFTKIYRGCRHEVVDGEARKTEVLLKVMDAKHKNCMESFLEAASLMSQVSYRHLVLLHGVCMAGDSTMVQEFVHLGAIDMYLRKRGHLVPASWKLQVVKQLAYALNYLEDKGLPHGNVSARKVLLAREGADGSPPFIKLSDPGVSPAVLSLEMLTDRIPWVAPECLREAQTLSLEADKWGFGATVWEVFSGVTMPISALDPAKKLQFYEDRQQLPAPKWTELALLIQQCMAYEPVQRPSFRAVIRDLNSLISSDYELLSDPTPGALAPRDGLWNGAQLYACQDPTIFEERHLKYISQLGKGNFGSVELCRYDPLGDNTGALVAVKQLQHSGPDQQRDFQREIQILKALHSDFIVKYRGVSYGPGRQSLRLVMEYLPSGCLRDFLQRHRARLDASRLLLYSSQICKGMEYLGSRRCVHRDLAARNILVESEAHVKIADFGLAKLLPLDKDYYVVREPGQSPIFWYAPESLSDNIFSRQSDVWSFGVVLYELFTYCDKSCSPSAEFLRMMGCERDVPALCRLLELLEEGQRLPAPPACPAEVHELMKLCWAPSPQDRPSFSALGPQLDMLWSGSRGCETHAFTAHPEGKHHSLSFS
Work on CC(=O)N[C@@H]1CCc2ccc(Oc3cnc4[nH]cc(C(=O)N[C@H](C)C(=O)N5CC(C#N)C5)c4n3)cc21 yielded an IC50 of 112 nM.
Molecule CC(=O)N[C@@H]1CCc2ccc(Oc3cnc4[nH]cc(C(=O)N[C@@H](C(=O)N5CC(C#N)C5)C5CC5)c4n3)cc21 has an IC50 of 5 nM.

These molecules were tested against Tyrosine-protein kinase JAK1 (Homo sapiens, UniProt P23458).
Work on CC(=O)N[C@@H]1CCc2ccc(Oc3cnc4[nH]cc(C(=O)N[C@H](C)C(=O)N5CC(C#N)C5)c4n3)cc21 yielded an IC50 of 11600 nM.
With CC(NC(=O)c1c[nH]c2ncc(Oc3ccccc3)nc12)C1CC1 (stereo not drawn) the IC50 was 220 nM.
For CC(=O)N[C@@H]1CCc2ccc(Oc3cnc4[nH]cc(C(=O)N[C@@H](C)C5CC5)c4n3)cc21, the IC50 was 863 nM.
CC(C)NC(=O)c1c[nH]c2ncc(Oc3cccc(C#N)c3)nc12 showed an IC50 of 3190 nM.
Molecule CC(=O)N[C@@H]1CCc2ccc(Oc3cnc4[nH]cc(C(=O)N[C@@H](C(=O)N5CC(C#N)C5)C5CC5)c4n3)cc21 has an IC50 of 262 nM.
For CC(=O)N[C@@H]1CCc2ccc(Oc3cnc4[nH]cc(C(=O)N[C@H](C)C5CC5)c4n3)cc21, the IC50 was 2080 nM.
Molecule CC(C)NC(=O)c1c[nH]c2ncc(Oc3ccccc3)nc12 has an IC50 of 840 nM.
Cc1cccc(Oc2cnc3[nH]cc(C(=O)NC(C)C)c3n2)c1 showed an IC50 of 2150 nM.
CCc1cccc(Oc2cnc3[nH]cc(C(=O)NC(C)C)c3n2)c1 gave an IC50 of 4160 nM.
CC(=O)N[C@H]1CCc2ccc(Oc3cnc4[nH]cc(C(=O)NC(C)C)c4n3)cc21 gave an IC50 of 4390 nM.
Molecule CC(=O)N[C@@H]1CCc2ccc(Oc3cnc4[nH]cc(C(=O)N[C@@H](C(=O)N5CC(C#N)C5)C(C)(C)C)c4n3)cc21 has an IC50 of 863 nM.
CC(C)NC(=O)c1c[nH]c2ncc(Oc3ccc(C#N)cc3)nc12 showed an IC50 of 3470 nM.
CC(=O)N[C@@H]1CCc2ccc(Oc3cnc4[nH]cc(C(=O)NC(C)C)c4n3)cc21 gave an IC50 of 6300 nM.
Molecule COc1cc(OC)cc(Oc2cnc3[nH]cc(C(=O)NC(C)C)c3n2)c1 has an IC50 of 8220 nM.
Cc1ccccc1Oc1cnc2[nH]cc(C(=O)NC(C)C)c2n1 showed an IC50 of 5090 nM.
CC(C)NC(=O)c1c[nH]c2ncc(Oc3ccc4c(c3)CCC4)nc12 was tested, and the IC50 was 3320 nM.
